Literature values, collected in patent US6927291B2, “Method for the synthesis of 2′,3′-dideoxy-2′,3′-didehydronucleosides” (Pharmasset, Ltd., priority 2001, dated 2005).

Key:
HIV [1] = conditions: result in words
[2] = tested on: AZT-resistant HIV isolates; conditions: in vitro; isolates from patients treated with AZT for longer than 36 weeks
HIV [3] = conditions: versus all approved anti-HIV agents

| SMILES | activity against HIV (HIV [1]) | inhibition of replication of AZT-resistant HIV isolates [2] | cross-resistance (HIV [3]) |
| --- | --- | --- | --- |
| Nc1ccn([C@@H]2CS[C@H](CO)O2)c(=O)n1 [Formula 3TC] | highly potent against HIV | – | – |
| Nc1ccn(C2CSC(CO)O2)c(=O)n1 (racemic) [BCH-189, 2-hydroxymethyl-5-(cytosin-1-yl)-1,3-oxathiolane] | approximately the same activity against HIV as AZT | inhibit the replication of AZT-resistant HIV isolates in vitro | – |
| Nc1nc(=O)n(C2C=CC(CO)O2)cc1F [β-D-D4FC, β-D-2′,3′-didehydro-2′,3′-dideoxy-5-fluorocytidine] | potent anti-HIV activity in vitro | – | no cross-resistance with all approved anti-HIV agents |
| Nc1nc(=O)n([C@@H]2CS[C@H](CO)O2)cc1F (relative stereo) [FTC, cis-2-hydroxymethyl-5-(5-fluorocytosin-1-yl)-1,3-oxathiolane] | potent HIV activity | – | – |
